Source: patent US20240000803A1, “ORAL FORMULATION OF BIOLOGICALLY ACTIVE MATERIAL CONJUGATE HAVING BIOTIN MOIETY, FATTY ACID MOIETY, OR COMBINATION THEREOF COUPLED THERETO” (D&D Pharmatech Inc., priority 2020, published 2024)
Where no end group is shown, it is not given here. [ ]: non-standard residue; d: D form. The star is where a group is joined. Biotin = O=C1N[C@H]2[C@H](CS[C@H]2CCCCC(=O)*)N1; F11 = C18-Glu-EG2-EG2-NHS; Aib = CC(C)(N)C(=O)O

Tested on: not listed separately
Assay: Weight reduction and feed intake reduction over 24 hours after oral administration
Type: in vivo
Details: mice, formulation with sodium chenodeoxycholate and propyl gallate (Table 13)
Protocol: Physiologically active substances bound to a biotin moiety, fatty acid moiety or a combination thereof, prepared in accordance with the above example, were formulated by dissolving in a vehicle (0.02% polysorbate 80 in 10 mM PBS (pH 7.4)) with the compositions of excipients shown in Table 13, then administered orally to mice. Weight reduction and feed intake reduction were measured over 24 hours.

Substance	Weight loss compared to untreated group (%)
Polypeptide SEQ ID NO: 28: amylin derivative KCNTATCATQRLADFLRHSSNNFGAIPSSTNVGSRTY (Amylin derivative) [reference compound]	−1.11 ± 0.84%
Conjugate 33: Polypeptide SEQ ID NO 24 (amylin derivative) with biotin moiety B38 at K1 (K(Biotin)CNTATCATQRLANFLVHSSNNFGPILPPTNVGSNTY; ends and bridges not checked)	−4.07 ± 1.30%
Conjugate 62: Polypeptide SEQ ID NO 26 with biotin moiety B38 at K1 and fatty acid moiety F11 at K1 (KCNTATCATQRLADFLRHSSPNFGAIPSSTNVGSRTY; not fully specified (residue 1); ends and bridges not checked; also: biotin B38 and fatty acid F11 both at K1, attachment sites not given here)	−3.32 ± 1.31%
Polypeptide SEQ ID NO: 30: amylin derivative RCNTATCATQRLADFLRHSSNNFGAIPSSTNVGSKTY (Amylin derivative) [reference compound]	−1.17 ± 0.76%
Conjugate 64: Polypeptide SEQ ID NO 30 with biotin moiety B38 at K35 and fatty acid moiety F11 at K1 (RCNTATCATQRLADFLRHSSNNFGAIPSSTNVGSK(Biotin)TY; ends and bridges not checked; also: fatty acid F11 at K1, but residue 1 is R)	−3.38 ± 1.26%
Conjugate 39: Polypeptide SEQ ID NO 28 (amylin derivative) with biotin moiety B38 at K1 (K(Biotin)CNTATCATQRLADFLRHSSNNFGAIPSSTNVGSRTY; ends and bridges not checked)	−1.99 ± 0.94%
Polypeptide SEQ ID NO: 24: amylin derivative KCNTATCATQRLANFLVHSSNNFGPILPPTNVGSNTY (Amylin derivative) [reference compound]	−2.63 ± 1.06%
Conjugate 36: Polypeptide SEQ ID NO 26 (amylin derivative) with biotin moiety B38 at K1 (K(Biotin)CNTATCATQRLADFLRHSSPNFGAIPSSTNVGSRTY; ends and bridges not checked)	−4.53 ± 0.86%
Conjugate 63: Polypeptide SEQ ID NO 28 with biotin moiety B38 at K1 and fatty acid moiety F11 at K1 (KCNTATCATQRLADFLRHSSNNFGAIPSSTNVGSRTY; not fully specified (residue 1); ends and bridges not checked; also: biotin B38 and fatty acid F11 both at K1, attachment sites not given here)	−2.41 ± 0.78%
Conjugate 61: Polypeptide SEQ ID NO 24 with biotin moiety B38 at K1 and fatty acid moiety F11 at K1 (KCNTATCATQRLANFLVHSSNNFGPILPPTNVGSNTY; not fully specified (residue 1); ends and bridges not checked; also: biotin B38 and fatty acid F11 both at K1, attachment sites not given here)	−2.96 ± 4.22%
Polypeptide SEQ ID NO: 26: amylin derivative KCNTATCATQRLADFLRHSSPNFGAIPSSTNVGSRTY (Amylin derivative) [reference compound]	−3.13 ± 1.05%

Tested on: glycated hemoglobin
Assay: Glycated hemoglobin change after oral administration once daily over 3 weeks (Conjugate 56)
Type: in vivo
Details: mice, oral once daily 3 weeks, formulation with one bile acid and propyl gallate
Protocol: Physiologically active substances bound to a biotin moiety prepared in accordance with the above example were formulated by dissolving in a vehicle with the compositions of excipients shown in Table 23. These were orally administered to mice once daily over 3 weeks, and changes in glycated hemoglobin were measured.

Substance	glycated hemoglobin reduction effect
Conjugate 56: Polypeptide SEQ ID NO 40 (glucagon derivative) with biotin moiety B38 at K12 and fatty acid moiety F11 at K30 (H[Aib]QGTFTSDYSK(Biotin)YLDEQAAKEFVQWLMNTK(F11))	exhibited a glycated hemoglobin reduction effect

Same assay, conditions: mice, oral once daily over 3 weeks, 1.343 mg/kg; sCDC 68 mg/kg, PG 34 mg/kg

Substance	ΔGlycated Hemoglobin
Conjugate 56: Polypeptide SEQ ID NO 40 (glucagon derivative) with biotin moiety B38 at K12 and fatty acid moiety F11 at K30 (H[Aib]QGTFTSDYSK(Biotin)YLDEQAAKEFVQWLMNTK(F11))	−0.47 ± 0.34%

Same assay, conditions: mice, oral once daily over 3 weeks, 4.475 mg/kg; sCDC 68 mg/kg, PG 34 mg/kg

Substance	ΔGlycated Hemoglobin
Conjugate 56: Polypeptide SEQ ID NO 40 (glucagon derivative) with biotin moiety B38 at K12 and fatty acid moiety F11 at K30 (H[Aib]QGTFTSDYSK(Biotin)YLDEQAAKEFVQWLMNTK(F11))	−0.98 ± 0.67%
